Test results reported in patent US8377867B2, “Use of epinecidin-1 peptides and anti-lipopolysaccharide factor peptides for treating microbial infection” (Academia Sinica, priority 2009, dated 2013).
Bridge positions count the residues as written; N and C are the ends. Ends that are not written are not given here. Peptide text beside a SMILES is read from it.

Tests used:
T. vaginalis cells = test: EtBr/acridine orange staining of T. vaginalis cells, epifluorescence microscopy; type: cell-based, Trichomonas vaginalis; conditions: peptide 200 μg/ml co-treated with metronidazole 100 μg/ml, 16 hours
Experimental: T. vaginalis cells (4000 cells/well) were co-treated with metronidazole (100 μg/ml) and Epinecidin-122-42 (200 μg/ml), csSALF55-76 (200 μg/ml), or 1sSALF122-42 (200 μg/ml) for 16 hours. Both metronidazole and the peptides were dissolved in PBS. The T. vaginalis cells were then stained with cold PBS containing 1 μg/ml ethidium bromide (EtBr) and 1 μg/ml acridine orange (AO) for 10 minutes and examined by epifluorescence microscopy.

[1] = test system: T. vaginalis cells (ATCC 50148 and T1); test: Scanning electron microscopy of T. vaginalis morphology; type: cell-based, Trichomonas vaginalis; conditions: ATCC 50148 and T1 cells, peptide 100 or 200 μg/ml, 1, 4 and 16 hours
Experimental: The effect of the three peptides on morphology of T. vaginalis cells was examined by scanning electron microscopy (SEM) and transmission electron microscopy (TEM) as follows. Cells of the ATCC 50148 and T1 strains were cultured in a 96-well cell culture plate (1×10^4 cells/well). The ATCC 50148 cells were treated with Epinecidin-122-42 (100 μg/ml), csSALF55-76 (100 μg/ml), or 1sSALF122-42 (200 μg/ml) for 1, 4, and 16 hours and the T1 cells were treated with Epinecidin-122-42 (100 μg/ml), csSALF55-76 (200 μg/ml), or 1sSALF122-42 (100 μg/ml) for the same periods. T. vaginalis cells treated with PBS were used as a control. The treated cells were then analyzed by SEM. […] A large amount of cell debris was also observed in the peptide-treated cells.

[2] = test system: T. vaginalis cells (ATCC 50148 and T1); test: Transmission electron microscopy of T. vaginalis morphology; type: cell-based, Trichomonas vaginalis; conditions: ATCC 50148 and T1 cells, 16 hours, peptide 150-250 (Epinecidin 150 μg/ml, csSALF 250 mg/ml, lsSALF 150 or 200 μg/ml)
Experimental: The T. vaginalis cells mentioned above were also subjected to TEM analysis as described in Pan et al., DNA Cell Biol. 26:403-413 (2007). Briefly, the ATCC 50148 cells (2×10^4) were treated for 16 hours with Epinecidin-122-42 at a concentration of 150 μg/ml, csSALF55-76 at a concentration of […], and 1sSALF122-42 at a concentration of 150 μg/ml; the T1 cells (2×10^4) were treated for 16 hours with Epinecidin-122-42 at a concentration of 150 μg/ml, csSALF55-76 at a concentration of […], and 1sSALF122-42 at a concentration of 200 μg/ml. T. vaginalis cells treated with PBS were used as a control. Morphology of the treated cells was observed using a transmission electron microscope (Hitachi, H-7000, Tokyo, Japan) at 75 kV; see Pan et al., DNA Cell Biol. 26:403-413 (2007).

[3] = test system: T. vaginalis cells (ATCC 50148 and T1); test: T. vaginalis cell viability, trypan blue exclusion assay; type: cell-based, Trichomonas vaginalis
Experimental: Finally, the numbers of viable T. vaginalis cells after peptide treatment were counted following the method described in Ofer et al., Int. J. Parasitol., 38:959-968 (2008). Briefly, cells of ATCC 50148 and T1 were treated with each of the three peptides mentioned above at 25, 50, 100, or 200 μg/ml for 1, 4, and 16 h (overnight), then the viability was analyzed. Cell viability was then determined by the conventional trypan blue exclusion assay. […] More than 60% T1 cells died after being treated with this peptide at a concentration of 50 μg/ml for one hour.

[4] = test system: Propionibacterium acnes (BCRC #10723); type: cell-based
Experimental: Propionibacterium acnes (BCRC #10723) cells were cultured under the conditions recommended by Bioresource Collection and Research Centre (BCRC) in Taiwan (see bcrc.firdi,org.tw:819/bcrc/indexe.htm). Their growth inhibition by Epinecidin-122-42 was determined following the method described in Pan et al., DNA Cell Biol. 26:403-413 (2007). The minimum inhibitory concentration of this peptide against P. acnes was 200 μg/ml.

[5] = test system: Propionibacterium acnes (BCRC #10723); test: SEM and TEM of P. acnes morphology; type: cell-based; conditions: P. acnes BCRC #10723, peptide 100 μg/ml in PBS
Experimental: The effect of Epinecidin-122-42 on P. acnes morphology was examined by SEM and TEM as follows. BCRC #10723 cells were seeded in a 6-well plate (1×10^4 cells per well), cultured for a sufficient period, collected by centrifugation, and re-suspended in PBS to reach an OD550 value of 1.0. The bacterial suspension was mixed with a freshly prepared PBS solution containing the peptide at a concentration of 100 μg/ml or PBS as a control.

[6] = test system: C. albicans strain BCRC #20511; type: cell-based, Candida albicans
Experimental: Cells of C. albicans strain BCRC #20511 were cultured following the protocol provided by BCRC. These cells were treated with peptide Epinecidin-122-42 at various concentrations and their growth inhibition was examined following the method disclosed in Pan et al., Int. Immunopharmacol. 7:687-700 (2007).

[7] = test system: C. albicans strain BCRC #20511; test: SEM and TEM of C. albicans morphology; type: cell-based, Candida albicans; conditions: C. albicans BCRC #20511, peptide 50 μg/ml
Experimental: The effect of Epinecidin-122-42 (50 μg/ml) on C. albicans cell morphology was analyzed by SEM and TEM following the methods mentioned above.

[8] = ATCC 50148 cells, 50 μg/ml, four hours

| Molecule | Effect on cellular and nuclear membranes (EtBr/AO red color in nuclei) (T. vaginalis cells) | Cell morphology by SEM [1] | Cell morphology by TEM [2] | Cells died after treatment [3, 8] | Cells died after treatment ([3]; T1 cells, 25 μg/ml, 16 hours) | Viable cells after treatment ([3]; ATCC 50148 cells, 25 μg/ml, one hour) | Viable cells after treatment ([3]; T1 cells, 25 μg/ml, four hours) | Cells died after treatment ([3]; T1 cells, 50 μg/ml, one hour) | Minimum inhibitory concentration [4] [µg/mL] | Cell morphology by SEM and TEM [5] | Cell growth inhibition ([6]; C. albicans BCRC #20511, various concentrations) | Minimum inhibitory concentration ([6]; strain BCRC #20511) [µg/mL] | Cell morphology by SEM and TEM [7] |
| --- | --- | --- | --- | --- | --- | --- | --- | --- | --- | --- | --- | --- | --- |
| CSCC[C@@H]1NC(=O)[C@H](CCCNC(=N)N)NC(=O)CNC(=O)[C@H](CCCCN)NC(=O)[C@H](Cc2ccc(O)cc2)NC(=O)[C@H](Cc2ccc(O)cc2)NC(=O)[C@H](C(C)C)NC(=O)[C@H](CCC(N)=O)NC(=O)[C@H](Cc2ccccc2)NC(=O)[C@H](CCCNC(=N)N)NC(=O)[C@H](CCCCN)NC(=O)[C@H](CC(C)C)NC(=O)[C@H](Cc2ccc(O)cc2)NC(=O)[C@@H]2CCCN2C(=O)[C@H](CCCCN)NC(=O)[C@H](C(C)C)NC(=O)[C@H]([C@@H](C)O)NC(=O)[C@H](Cc2ccccc2)NC(=O)[C@H](CCCCN)NC(=O)[C@@H](NC(=O)[C@H](CCC(=O)O)NC(C)=O)CSSC[C@@H](C(=O)N2CCC[C@H]2C(N)=O)NC(=O)[C@H](Cc2c[nH]c3ccccc23)NC1=O [cs-SALF55-76] (Ac-ECKFTVKPYLKRFQVYYKGRMWCP-NH2; disulfide 2-23; N-terminus and C-terminus assumed) | destroyed the cellular and nuclear membranes | damaged cell membranes and distorted cell shape | significantly disrupted the intact structure | most ATCC 50148 cells died | most T1 cells died | – | – | – | – | – | – | – | – |
| CSCC[C@H](NC(=O)[C@H](CCCNC(=N)N)NC(=O)CNC(=O)[C@H](CCCCN)NC(=O)[C@H](Cc1ccc(O)cc1)NC(=O)[C@H](Cc1ccc(O)cc1)NC(=O)[C@@H](NC(=O)[C@H](CCC(N)=O)NC(=O)[C@H](Cc1ccccc1)NC(=O)[C@H](CCCNC(=N)N)NC(=O)[C@H](CCCCN)NC(=O)[C@H](CC(C)C)NC(=O)[C@H](Cc1ccc(O)cc1)NC(=O)[C@@H]1CCCN1C(=O)[C@H](CCCCN)NC(=O)[C@@H](NC(=O)[C@@H](NC(=O)[C@H](Cc1ccccc1)NC(=O)[C@H](CCCCN)NC(=O)[C@H](CS)NC(=O)[C@@H](N)CCC(=O)O)[C@@H](C)O)C(C)C)C(C)C)C(=O)N[C@@H](Cc1c[nH]c2ccccc12)C(=O)N[C@@H](CS)C(=O)N1CCC[C@H]1C(=O)O [ls-SALF55-76] (H-ECKFTVKPYLKRFQVYYKGRMWCP-OH; N-terminus and C-terminus assumed) | destroyed the cellular and nuclear membranes | damaged cell membranes and distorted cell shape | significantly disrupted the intact structure | most ATCC 50148 cells died | most T1 cells died | – | – | – | – | – | – | – | – |
| GFIFHIIKGLFHAGKMIHGLV-NH2 [Epinecidin-122-42] | destroyed the cellular and nuclear membranes | damaged cell membranes and distorted cell shape | significantly disrupted the intact structure | – | – | No viable cells | No viable cells | More than 60% | 200 | destroyed the outer membranes of P. acnes cells | significantly inhibited C. albicans cell growth | 25 | irregular shape and disrupted outer/intracellular membranes |
